Laboratory results published in PubChem BioAssay AID330 (DTP/NCI, 2004).
Where “and” joins values, the source holds several entries; their conditions need not be identical. Equal entries are not always repeated. Inconclusive results and toxic doses are left out.

System: P388 leukemia ip, CD2F1 mice, survival T/C
Test: NCI In Vivo Anticancer Drug Screen. Data for tumor model P388 Leukemia (intraperitoneal) in CD2F1 (CDF1) mice
Details: endpoint: median survival time, higher = longer survival
Summary of the method: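 Mice carrying the transplanted tumor received test compound or vehicle. Survival was recorded in each group, and the value is the treated-group measurement divided by that of the vehicle-treated control group.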

[1] = dose: 50.0 mg/kg/injection, schedule: Q01DX005 (ip), vehicle: saline with Tween-80
[2] = dose: 100.0 mg/kg/injection, schedule: Q01DX005 (ip), vehicle: saline with Tween-80
[3] = dose: 200.0 mg/kg/injection, schedule: Q01DX005 (ip), vehicle: saline with Tween-80
[4] = dose: 100.0 mg/kg/injection, schedule: Q01DX009 (ip), vehicle: saline with Tween-80
[5] = dose: 100.0 mg/kg/injection, schedule: Q04DX003 (ip), vehicle: saline with Tween-80
[6] = dose: 200.0 mg/kg/injection, schedule: Q01DX009 (ip), vehicle: saline with Tween-80
[7] = dose: 200.0 mg/kg/injection, schedule: Q04DX003 (ip), vehicle: saline with Tween-80
[8] = dose: 50.0 mg/kg/injection, schedule: Q01DX005 (ip), vehicle: Klucel (hydroxypropylcellulose) (HPC)
[9] = dose: 100.0 mg/kg/injection, schedule: Q01DX005 (ip), vehicle: Klucel (hydroxypropylcellulose) (HPC)
[10] = dose: 200.0 mg/kg/injection, schedule: Q01DX005 (ip), vehicle: Klucel (hydroxypropylcellulose) (HPC)
[11] = dose: 6.25 mg/kg/injection, schedule: Q01DX009 (ip), vehicle: other
[12] = dose: 12.5 mg/kg/injection, schedule: Q01DX009 (ip), vehicle: other
[13] = dose: 25.0 mg/kg/injection, schedule: Q01DX009 (ip), vehicle: other
[14] = dose: 50.0 mg/kg/injection, schedule: Q01DX009 (ip), vehicle: other
[15] = dose: 100.0 mg/kg/injection, schedule: Q01DX009 (ip), vehicle: other
[16] = dose: 200.0 mg/kg/injection, schedule: Q01DX009 (ip), vehicle: other
[17] = dose: 400.0 mg/kg/injection, schedule: Q01DX009 (ip), vehicle: other

For `COC(=O)C12CC(CCC1C13CC=CC(C)(C)C1C(=O)OC3)C(C)C2=O` (stereo not given), the T/C (dose: 100.0 mg/kg/injection, schedule: Q04DX002 (ip), vehicle: saline with Tween-80) was 92 % of control, the T/C (dose: 200.0 mg/kg/injection, schedule: Q04DX002 (ip), vehicle: saline with Tween-80) was 95 % of control and the T/C (dose: 400.0 mg/kg/injection, schedule: Q04DX002 (ip), vehicle: saline with Tween-80) was 103 % of control.

For `CO/C=C1\CC(=O)N(c2cccc([N+](=O)[O-])c2)C1=O`, the T/C (dose: 25.0 mg/kg/injection, schedule: Q04DX003 (ip), vehicle: saline) was 97 % of control, the T/C (dose: 50.0 mg/kg/injection, schedule: Q04DX003 (ip), vehicle: saline) was 96 % of control and the T/C (dose: 100.0 mg/kg/injection, schedule: Q04DX003 (ip), vehicle: saline) was 94 % of control and 96 % of control. For the same compound, the T/C (dose: 200.0 mg/kg/injection, schedule: Q04DX003 (ip), vehicle: saline) was 90 % of control and the T/C (dose: 400.0 mg/kg/injection, schedule: Q04DX003 (ip), vehicle: saline) was 97 % of control.

In the case of `CNC(=O)OCc1c(COC(=O)NC)c(-c2ccc(Sc3ccccc3)cc2)n(C)c1C`, the T/C (dose: 12.5 mg/kg/injection, schedule: Q01DX009 (ip), vehicle: distilled water + Tween-80) was 154 % of control, the T/C (dose: 25.0 mg/kg/injection, schedule: Q01DX009 (ip), vehicle: distilled water + Tween-80) was 152 % of control and the T/C (dose: 50.0 mg/kg/injection, schedule: Q01DX009 (ip), vehicle: distilled water + Tween-80) was 160 % of control and 162 % of control. For the same compound, the T/C (dose: 100.0 mg/kg/injection, schedule: Q01DX009 (ip), vehicle: distilled water + Tween-80) was 171 % of control and 184 % of control and the T/C (dose: 200.0 mg/kg/injection, schedule: Q01DX009 (ip), vehicle: distilled water + Tween-80) was 108 % of control.

With `COc1cc(N=Nc2cc(CN(C)C)c(O)c3ncccc23)c(OC)cc1N=Nc1c(Cl)cc([N+](=O)[O-])cc1Cl` the T/C [1] was 104 % of control, the T/C [2] was 100 % of control and the T/C [3] was 109 % of control.

With `O=P1(Nc2ccc(Cl)cc2)N(Cc2ccc(Cl)cc2)CCCN1Cc1ccc(Cl)cc1` the T/C [1] was 93 % of control, the T/C [2] was 92 % of control and the T/C [3] was 98 % of control.

In the case of `CCC(=O)NC1c2ccccc2Oc2ccccc21`, the T/C [1] was 100 % of control, the T/C [2] was 100 % of control and the T/C [3] was 98 % of control.

For `O=C1CCCCC1O` (stereo not given), the T/C (dose: 50.0 mg/kg/injection, schedule: Q01DX009 (ip), vehicle: saline) was 104 % of control and 106 % of control, the T/C (dose: 100.0 mg/kg/injection, schedule: Q01DX009 (ip), vehicle: saline) was 100 % of control and 103 % of control and the T/C (dose: 200.0 mg/kg/injection, schedule: Q01DX009 (ip), vehicle: saline) was 110 % of control and 97 % of control. For the same compound, the T/C (dose: 400.0 mg/kg/injection, schedule: Q01DX009 (ip), vehicle: saline) was 88 % of control and 95 % of control.

In the case of `O=C(Nc1ccc2c(c1)Cc1cccc(NC(=O)C(Cl)Cl)c1-2)C(Cl)Cl`, the T/C [4] was 90 % of control, the T/C [5] was 91 % of control and the T/C [6] was 95 % of control. For the same compound, the T/C [7] was 91 % of control, the T/C (dose: 400.0 mg/kg/injection, schedule: Q01DX009 (ip), vehicle: saline with Tween-80) was 100 % of control and the T/C (dose: 400.0 mg/kg/injection, schedule: Q04DX003 (ip), vehicle: saline with Tween-80) was 87 % of control.

With `CCCCCCCC(=O)Nc1nnc(SCCCCCCCCCCCCSc2nnc(NC(=O)CCCCCCC)s2)s1` the T/C [8] was 90 % of control, the T/C [9] was 89 % of control and the T/C [10] was 86 % of control.

With `CSC(=Nc1nc2ccc([N+](=O)[O-])cc2s1)SC` the T/C (dose: 6.25 mg/kg/injection, schedule: Q01DX009 (ip), vehicle: Klucel (hydroxypropylcellulose) (HPC)) was 101 % of control, the T/C (dose: 12.5 mg/kg/injection, schedule: Q01DX009 (ip), vehicle: Klucel (hydroxypropylcellulose) (HPC)) was 103 % of control and the T/C (dose: 25.0 mg/kg/injection, schedule: Q01DX009 (ip), vehicle: Klucel (hydroxypropylcellulose) (HPC)) was 103 % of control.

With `CC(C)C1(c2ccsc2)NC(=O)NC1=O` (stereo not given) the T/C (dose: 50.0 mg/kg/injection, schedule: Q01DX009 (ip), vehicle: Klucel (hydroxypropylcellulose) (HPC)) was 107 % of control, the T/C (dose: 100.0 mg/kg/injection, schedule: Q01DX009 (ip), vehicle: Klucel (hydroxypropylcellulose) (HPC)) was 99 % of control and the T/C (dose: 200.0 mg/kg/injection, schedule: Q01DX009 (ip), vehicle: Klucel (hydroxypropylcellulose) (HPC)) was 96 % of control.

In the case of `COc1ccc2oc3cc4c(c(O)c3c(=O)c2c1CC=C(C)C)C=CC(C)(C)O4`, the T/C [8] was 88 % of control, the T/C [9] was 86 % of control and the T/C [10] was 87 % of control.

With `Cc1ccc(C)c(C2NC(=O)c3ccccc3N2)c1` (stereo not given) the T/C (dose: 25.0 mg/kg/injection, schedule: Q01DX009 (ip), vehicle: saline with Tween-80) was 104 % of control, the T/C (dose: 50.0 mg/kg/injection, schedule: Q01DX009 (ip), vehicle: saline with Tween-80) was 104 % of control and the T/C [4] was 101 % of control. For the same compound, the T/C [6] was 112 % of control.

In the case of `CCCC(=O)NN=C(C)C`, the T/C (dose: 12.5 mg/kg/injection, schedule: Q01DX009 (ip), vehicle: saline) was 104 % of control and the T/C (dose: 25.0 mg/kg/injection, schedule: Q01DX009 (ip), vehicle: saline) was 109 % of control.

With `COC(=O)Nc1cnc(C)c(C)c1-c1ccc(OC)c(OC)c1OCc1ccccc1` the T/C (dose: 0.05 mg/kg/injection, schedule: Q01DX009 (ip), vehicle: water) was 96 % of control, the T/C (dose: 0.1 mg/kg/injection, schedule: Q01DX009 (ip), vehicle: water) was 111 % of control and the T/C (dose: 0.2 mg/kg/injection, schedule: Q01DX009 (ip), vehicle: water) was 110 % of control. For the same compound, the T/C (dose: 0.4 mg/kg/injection, schedule: Q01DX009 (ip), vehicle: water) was 104 % of control and 105 % of control, the T/C (dose: 0.8 mg/kg/injection, schedule: Q01DX009 (ip), vehicle: water) was 106 % of control and the T/C (dose: 1.6 mg/kg/injection, schedule: Q01DX009 (ip), vehicle: water) was 109 % of control. For the same compound, the T/C (dose: 3.2 mg/kg/injection, schedule: Q01DX009 (ip), vehicle: water) was 103 % of control, the T/C [11] was 103 % of control and the T/C (dose: 6.4 mg/kg/injection, schedule: Q01DX009 (ip), vehicle: water) was 104 % of control. The T/C [12] was 103 % of control, the T/C [13] was 104 % of control and the T/C [14] was 98 % of control. For the same compound, the T/C [15] was 108 % of control, the T/C [16] was 99 % of control and the T/C [17] was 99 % of control.

In the case of `COC1CC(NC(C)=O)C(OC(=O)c2ccccc2)C(CBr)O1` (stereo not given), the T/C (dose: 1.56 mg/kg/injection, schedule: Q01DX009 (ip), vehicle: other) was 94 % of control, the T/C (dose: 3.13 mg/kg/injection, schedule: Q01DX009 (ip), vehicle: other) was 94 % of control and the T/C [11] was 106 % of control. The T/C [12] was 108 % of control, the T/C [13] was 100 % of control and 106 % of control and the T/C [14] was 101 % of control. The T/C [15] was 104 % of control, the T/C [16] was 97 % of control and the T/C [17] was 92 % of control.

`COc1cc(C/C=C/c2ccccc2)c(OC)cc1O` was tested, and the T/C (dose: 2.5 mg/kg/injection, schedule: Q01DX009 (ip), vehicle: saline with Tween-80) was 91 % of control, the T/C (dose: 5.0 mg/kg/injection, schedule: Q01DX009 (ip), vehicle: saline with Tween-80) was 102 % of control and the T/C (dose: 10.0 mg/kg/injection, schedule: Q01DX009 (ip), vehicle: saline with Tween-80) was 101 % of control.

`CCc1c(C)[nH]c2ccc(N)cc12` was tested, and the T/C (dose: 25.0 mg/kg/injection, schedule: Q04DX003 (ip), vehicle: saline with Tween-80) was 99 % of control, the T/C (dose: 50.0 mg/kg/injection, schedule: Q04DX003 (ip), vehicle: saline with Tween-80) was 93 % of control and the T/C [5] was 93 % of control. The T/C [7] was 110 % of control.

In the case of `COc1cccc2c1C(=O)c1c(O)c3c(c(O)c1C2=O)CC(O)(C(C)O)CC3` (stereo not given), the T/C (dose: 1.0 mg/kg/injection, schedule: Q01DX009 (ip), vehicle: Klucel (hydroxypropylcellulose) (HPC)) was 102 % of control, the T/C (dose: 2.0 mg/kg/injection, schedule: Q01DX009 (ip), vehicle: Klucel (hydroxypropylcellulose) (HPC)) was 99 % of control and the T/C (dose: 4.0 mg/kg/injection, schedule: Q01DX009 (ip), vehicle: Klucel (hydroxypropylcellulose) (HPC)) was 95 % of control. The T/C (dose: 8.0 mg/kg/injection, schedule: Q01DX009 (ip), vehicle: Klucel (hydroxypropylcellulose) (HPC)) was 92 % of control.
